Where two headings read alike, the source gives them in different places.
Target: T1, yeast alcohol dehydrogenase (Saccharomyces cerevisiae, UniProt P00330)
T1 construct: gene ADH1
T1 sequence (P00330 2-348): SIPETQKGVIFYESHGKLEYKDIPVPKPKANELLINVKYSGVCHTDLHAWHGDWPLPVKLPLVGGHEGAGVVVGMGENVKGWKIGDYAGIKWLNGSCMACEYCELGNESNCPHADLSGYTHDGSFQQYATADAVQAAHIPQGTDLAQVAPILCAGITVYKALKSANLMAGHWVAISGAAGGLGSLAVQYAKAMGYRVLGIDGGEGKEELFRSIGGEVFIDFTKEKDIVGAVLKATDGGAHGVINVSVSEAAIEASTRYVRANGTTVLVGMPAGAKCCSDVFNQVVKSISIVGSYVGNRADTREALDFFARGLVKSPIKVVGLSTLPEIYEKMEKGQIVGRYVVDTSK
Test: NADH absorbance ([…] nm) enzyme assay of acetaldehyde reduction, 8-point dose response
Assay type: biochemical

| Compound | IC50 (read-out: IC50 yADH ^c) [µM] | IC50 [µM] |
| --- | --- | --- |
| CC(=O)c1ccc(O)c2c1C1C=CCC1C(c1ccc(Cl)cc1)N2 (stereo not shown) [compound 7172827, 7172827] | 25.6 |  |
| COc1ccc(/C=C/[N+](=O)[O-])cc1Br [compound 7241889, 7241889] |  | 1.3 |
| COc1cc(C)c(/C=C/[N+](=O)[O-])cc1C(C)C [compound 7279172, 7279172] |  | 12.7 |
| C#CCOc1c(Cl)cc(/C=C/[N+](=O)[O-])cc1OC [compound 7312219, 7312219] |  | 3.8 |
